{
  "source": "patent US20240247266A1",
  "about": "“METHODS AND COMPOSITIONS FOR TREATING AN ANGIOTENSINOGEN- (AGT-) ASSOCIATED DISORDER” (Alnylam Pharmaceuticals, Inc., priority 2021, published 2024)",
  "format_in_all_cases": "in vivo, human",
  "key": {"[1]": {"tested_on": "patients with hypertension", "experiment": "Example 5: blood pressure by 24 hour ABPM with irbesartan add-on", "conditions": "daily add-on for 2 weeks to zilebesiran 800 mg, Day 43-57", "protocol": "(§1) In a multicenter, randomized, double-blinded, placebo-controlled, single ascending fixed dose study to assess the safety and efficacy of AD-85481 (Zilebesiran) after a single fixed dose administration to subjects having hypertension (ClinicalTrials.gov Identifier: NCT03934307, Part A), a sub-study was performed to assess the safety and tolerability of AD-85481 (Zilebesiran) in hypertensive patients during irbesartan co-administration (NCT03934307, Part E). Briefly, all patients received an open-label single 800 mg fixed dose of AD-85481 by subcutaneous administration on Day 1. On Day 41, patients with a 24-hr mean systolic blood pressure (SBP)≥120 mmHg (N=10) proceeded to receive irbesartan (300 mg oral) once daily from Day 43 to Day 57 for 14 days (FIG. 10). The safety and tolerability, change from baseline in serum AGT, and plasma and urine pharmacokinetic parameters were evaluated. Change from baseline in blood pressure was also assessed by 24-hour ABPM. Assessments of AD-85481 also included change from baseline in SBP and DBP determined by 24 hour ambulatory blood pressure monitoring (ABPM)."}, "serum AGT": {"tested_on": "serum AGT", "experiment": "Example 5 (Part E, irbesartan co-administration): serum AGT", "conditions": "add-on 300 mg orally daily after 800 mg AD-85481", "protocol": "as §1, with “10).” for “10). The safety and tolerability, change from baseline in serum AGT, and plasma and urine pharmacokinetic parameters were evaluated. Change from baseline in blood pressure was also assessed by 24-hour ABPM. Assessments of AD-85481 also included change from baseline in SBP and DBP determined by 24 hour ambulatory blood pressure monitoring (ABPM).”\n(§2) The safety and tolerability, change from baseline in serum AGT, and plasma and urine pharmacokinetic parameters were evaluated. Change from baseline in blood pressure was also assessed by 24-hour ABPM."}, "[2]": {"tested_on": "patients with hypertension", "experiment": "Example 5: safety and tolerability during irbesartan co-administration", "conditions": "add-on treatment with zilebesiran", "protocol": "as §1, with “10).” for “10). The safety and tolerability, change from baseline in serum AGT, and plasma and urine pharmacokinetic parameters were evaluated. Change from baseline in blood pressure was also assessed by 24-hour ABPM. Assessments of AD-85481 also included change from baseline in SBP and DBP determined by 24 hour ambulatory blood pressure monitoring (ABPM).”\nas §2\nSafety was reported from the start of the study to Day 85. […] There was one mild SAE of acute anemia in the irbesartan add-on group, but was considered not related to study drug, which was a complication of esophagogastroduodenoscopy with biopsy performed during screening prior to dose of zilebesiran."}},
  "data": [
    {"smiles": "CCCCC1=NC2(CCCC2)C(=O)N1Cc1ccc(-c2ccccc2-c2nnn[nH]2)cc1", "note": "[irbesartan]", "values": [
      {"measurement": "effect on systolic and diastolic BP (in words)", "setting": "[1]", "value": "further reduced systolic and diastolic BP"},
      {"measurement": "effect on serum AGT levels", "setting": "serum AGT", "value": "no additional effect"},
      {"measurement": "changes in creatinine or potassium", "setting": "[2]", "value": "without clinically significant changes in creatinine or potassium"}
    ]}
  ]
}
